Source: patent publication US10988523B2, “Modified lipidated Relaxin B chain peptides and their therapeutic use” (Sanofi, priority 2018, dated 2021)
*1 amine or outer side, *2 acyl side, *3 side chain or, on linkers, in order; H or OH if unused. Where a SMILES comes first, the peptide text is derived from it. Side-chain parts run from the residue outwards. [ ]: non-standard residue; d: D form. The star is where a group is joined. γGlu = O=C(O)[C@H](CCC(=O)[*:2])N[*:1]; Stearoyl = CCCCCCCCCCCCCCCCCC(=O)*; Palmitoyl = CCCCCCCCCCCCCCCC(=O)*; Nle = CCCC[C@H](N)C(=O)O; AEEA = NCCOCCOCC(=O)O; Aib = CC(C)(N)C(=O)O

Molecular target: T1, RXFP1 (Homo sapiens, UniProt Q9HBX9)
T1 construct: OVCAR5 cells expressing endogenous RXFP1; endogenous in cells; host or cells: OVCAR5 cells
T1 sequence (Q9HBX9 1-757): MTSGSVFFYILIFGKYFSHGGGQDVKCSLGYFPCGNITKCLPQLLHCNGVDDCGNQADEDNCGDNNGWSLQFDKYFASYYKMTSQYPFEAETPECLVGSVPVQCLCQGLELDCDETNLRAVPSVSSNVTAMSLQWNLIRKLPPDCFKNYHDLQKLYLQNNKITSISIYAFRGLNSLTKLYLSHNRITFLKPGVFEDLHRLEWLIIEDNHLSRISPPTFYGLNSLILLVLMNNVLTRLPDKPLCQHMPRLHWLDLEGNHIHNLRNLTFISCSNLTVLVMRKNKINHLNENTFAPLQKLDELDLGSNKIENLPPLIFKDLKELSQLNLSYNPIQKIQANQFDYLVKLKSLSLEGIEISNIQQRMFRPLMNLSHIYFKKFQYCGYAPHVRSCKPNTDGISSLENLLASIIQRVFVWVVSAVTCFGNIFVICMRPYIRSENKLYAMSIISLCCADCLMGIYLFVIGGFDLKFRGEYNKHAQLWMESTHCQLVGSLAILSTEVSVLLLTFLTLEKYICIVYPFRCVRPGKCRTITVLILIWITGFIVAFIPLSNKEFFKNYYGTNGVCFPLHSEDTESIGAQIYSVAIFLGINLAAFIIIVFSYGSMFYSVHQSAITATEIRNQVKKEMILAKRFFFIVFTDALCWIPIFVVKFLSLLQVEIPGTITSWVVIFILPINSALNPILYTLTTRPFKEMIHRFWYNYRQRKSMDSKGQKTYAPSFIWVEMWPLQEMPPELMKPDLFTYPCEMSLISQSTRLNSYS
Test: OVCAR5 cAMP assay (HTRF), RXFP1 agonist activity
Type: cell-based
Conditions: for EC50: OVCAR5 cells, cAMP HTRF, read-out: EC50 (nM), OVCAR 5 cells (cAMP); for Emax: OVCAR-5, maximal cAMP relative to H2-relaxin maximum (100%), read-out: EMax, OVCAR 5 cells (cAMP)
In short: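 OVCAR5 cells (endogenous RXFP1) pretreated 40 min at 37° C with 1 mM IBMX, then exposed to peptides in serum-free medium for 30 min at 37° C. Lysate cAMP read by HTRF; EC50 from variable-slope sigmoidal fit; Emax as % of H2-relaxin maximal cAMP in same run.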

Structure (SMILES)	EC50 [nM]	Emax [%]
CCCCCCCCCCCCCCCC(=O)N[C@@H](CCC(=O)NCCCC[C@H](NC(=O)CC[C@H](NC(=O)CC[C@H](NC(=O)CC[C@H](NC(=O)COCCOCCNC(=O)COCCOCCNC(=O)COCCOCCNC(=O)COCCOCCNC(=O)[C@H](CCCCN)NC(=O)[C@H](CCCCN)NC(=O)[C@H](CCCCN)NC(=O)[C@H](CCCNC(=N)N)NC(=O)C(C)(C)NC(=O)[C@H](CO)NC(=O)[C@H](Cc1c[nH]c2ccccc12)NC(=O)[C@@H](NC(=O)[C@H](CO)NC(=O)[C@H](CCCC)NC(=O)CNC(=O)[C@H](CCC(=O)O)NC(=O)C(C)(C)NC(=O)C(C)(C)NC(=O)[C@@H](NC(=O)[C@H](CCC(N)=O)NC(=O)[C@H](C)NC(=O)[C@H](CCCNC(=N)N)NC(=O)[C@@H](NC(=O)[C@H](CCCCN)NC(=O)[C@H](CCC(=O)O)NC(=O)[C@H](CCCNC(=N)N)NC(=O)CNC(=O)[C@H](CCC(=O)O)NC(=O)[C@H](CC(C)C)NC(C)=O)C(C)C)[C@@H](C)CC)[C@@H](C)O)C(=O)O)C(=O)O)C(=O)O)C(N)=O)C(=O)O [compound 108] (Ac-LEGREKVRAQI[Aib][Aib]EG[Nle]STWS[Aib]RKKK[AEEA][AEEA][AEEA][AEEA][γGlu][γGlu][γGlu]K([γGlu-Palmitoyl])-NH2)	0.15	94
CCCCCCCCCCCCCCCCCC(=O)N[C@@H](CCC(=O)N[C@@H](CCC(=O)N[C@@H](CCC(=O)N[C@@H](CCC(=O)N[C@@H](CCC(=O)NCCOCCOCC(=O)NCCOCCOCC(=O)NCCOCCOCC(=O)NCCCC[C@H](NC(=O)[C@H](CCCCN)NC(=O)[C@H](CCCCN)NC(=O)[C@H](CCCNC(=N)N)NC(=O)C(C)(C)NC(=O)[C@H](CO)NC(=O)[C@H](Cc1c[nH]c2ccccc12)NC(=O)[C@@H](NC(=O)[C@H](CO)NC(=O)[C@H](CCC(N)=O)NC(=O)CNC(=O)[C@H](CCC(=O)O)NC(=O)C(C)(C)NC(=O)C(C)(C)NC(=O)[C@@H](NC(=O)[C@H](CCCCNC(C)=O)NC(=O)[C@H](C)NC(=O)[C@H](CCCNC(=N)N)NC(=O)[C@@H](NC(=O)[C@H](CCCCN)NC(=O)[C@H](CCC(=O)O)NC(=O)[C@H](CCCNC(=N)N)NC(=O)CNC(=O)[C@H](CCC(=O)O)NC(=O)[C@H](CC(C)C)NC(C)=O)C(C)C)[C@@H](C)CC)[C@@H](C)O)C(N)=O)C(=O)O)C(=O)O)C(=O)O)C(=O)O)C(=O)O [compound 111] (Ac-LEGREKVRAK(Ac)I[Aib][Aib]EGQSTWS[Aib]RKKK([AEEA-AEEA-AEEA-γGlu-γGlu-γGlu-γGlu-γGlu-Stearoyl])-NH2)	0.21	92
CCCCCCCCCCCCCCCCCC(=O)N[C@@H](CCC(=O)N[C@@H](CCC(=O)N[C@@H](CCC(=O)NCCOCCOCC(=O)NCCOCCOCC(=O)NCCOCCOCC(=O)NCCCC[C@H](NC(=O)[C@H](CCCCNC(C)=O)NC(=O)[C@H](CCCCN)NC(=O)[C@H](CCCNC(=N)N)NC(=O)C(C)(C)NC(=O)[C@H](CO)NC(=O)[C@H](Cc1c[nH]c2ccccc12)NC(=O)[C@@H](NC(=O)[C@H](CO)NC(=O)[C@H](CCC(N)=O)NC(=O)CNC(=O)[C@H](CCC(=O)O)NC(=O)C(C)(C)NC(=O)C(C)(C)NC(=O)[C@@H](NC(=O)[C@H](CCCCNC(C)=O)NC(=O)[C@H](C)NC(=O)[C@H](CCCNC(=N)N)NC(=O)[C@@H](NC(=O)[C@H](CCCCN)NC(=O)[C@H](CCC(=O)O)NC(=O)[C@H](CCCNC(=N)N)NC(=O)CNC(=O)[C@H](CCC(=O)O)NC(=O)[C@H](CC(C)C)NC(C)=O)C(C)C)[C@@H](C)CC)[C@@H](C)O)C(N)=O)C(=O)O)C(=O)O)C(=O)O [compound 113] (Ac-LEGREKVRAK(Ac)I[Aib][Aib]EGQSTWS[Aib]RKK(Ac)K([AEEA-AEEA-AEEA-γGlu-γGlu-γGlu-Stearoyl])-NH2)	–	89
